Where two headings read alike, the source gives them in different places.
Legend:
[1] = tested on: IL-1 induced release of 35S-labelled proteoglycans from chondrocytes; test: Chondrocyte cell culture matrix breakdown assay (IL-1 induced 35S release); format: cell-based, calf (bovine); settings: for inhibition at 10 µM / inhibition at 50 µM: Bos taurus, Chondrocyte
Procedure: A cell culture assay was used to measure the ability of the test compounds to slow the degradation of the extracellular matrix by a metalloproteinase. This assay measured the amount ^35S released from chondrocytes grown in a media with ^35S labeled sodium sulfate. The cell culture assay was carried out as follows:
Two or three 1 to 3 week old calf joints were obtained from an abattoir. The proximal end of the shank was about 4-5′ long to facilitate immobilization in the holder. The joint was kept cool and transported on ice. The exterior of the intact joints was washed well with a suitable anti-microbial soap, rinsed clean with warm water, rinsed in betadine and then finally rinsed with 70% ethanol. Up to this point all steps were done in a manner to ensure that the joint was kept as clean as possible. All subsequent steps were performed in a sterile field (i.e., in a Edgeguard laminar flow tissue culture hood). The joint was immobilized and the synovial fluid was aspirated with a needle and syringe. The joint was then cut open to expose the articular cartilage using a #21 scalpel. Using locking hemostats, forceps and a #15 scalpel, the cartilage was excised in full thickness pieces. Care was taken not to cut too deep into the subchondral bone to prevent bleeding. The cartilage pieces were placed into a 50 mL centrifuge tube containing 25 mL of Delbecco's phosphate buffered saline (D-PBS) supplemented with 1% antibiotic solution (penicillin, streptomycin and fungizone; GIBCO/BRL). The slices from each joint were then placed into separate 50 mL centrifuge tubes. The D-PBS was decanted and replaced with 25 mL of fresh D-PBS supplemented with antibiotics and subsequently agitated gently.
The cartilage pieces were transferred to a fresh 50 mL centrifuge tube and rinsed once more with 25 mL of D-PBS minus antibiotics. An enzymatic digestion solution containing 1 mg/mL of hyaluronidase in serum-free 1:1 DMEM/Ham's F-12 (DMEM/F12) was prepared. This solution was filter sterilized with 0.22 mm Milex-GV filter and kept on ice until ready to use. The cartilage pieces were digested with approximately 5 mL of hyaluronidase solution per joint for 2×15 minutes at 37° C. in the 50 mL centrifuge tube with gentle agitation at the 15 minute mark. This procedure removed residual hyaluronic acid from the surface of the chips. The enzymatic digestion solution was then aspirated and the cartilage pieces were rinsed with 25 mL of D-PBS.
A second enzymatic digestion solution containing 2.5 mg trypsin and 2 mg collagenase P per mL serum-free DMEM/F12 was prepared. This solution was also filter sterilized with a 0.22 mm Millex-GV filter and kept on ice until ready to use. The cartilage pieces were digested with approximately 5 mL of trypsin: collagenase solution per joint for 2×15 minutes at 37° C. in the 50 mL centrifuge tube with gentle agitation at the 15 minute mark. This procedure removed the synovial fibroblasts and any adherent connective tissue from the surface of the chips. The enzymatic digestion solution was then carefully removed and saved and the cartilage pieces were rinsed with 25 mL of D-PBS.
A third enzymatic solution containing 2 mgs of collagenase P (BMB) per mL serum-free DMEM/F12 was prepared. This solution was filter sterilized with a 0.22 mm Millex-GV filter and kept on ice until ready to use. The pre-digested cartilage pieces were finally digested with approximately 20 mL of enzymatic digestion solution per joint for 5-6 hours at 37° C. in a Bellco stirring digestion flask, at which point the cartilage was fully digested away.
The enzymes in the synovial fibroblast and chondrocyte digest were neutralized by addition of an equal volume of DMEM/F12 supplemented with 5% fetal bovine serum. Fibroblasts were plated in DMEM at a cellular density of 6.6×10^3 cells per cm^2. […]

[2] = tested on: IL-1-induced aggrecan degradation; test: Aggrecan degradation in IL-1-stimulated chondrocytes, 2-B-6 antibody immunoblot; format: cell-based, bovine; settings: for intensity of staining (total amount of PG fragments), 2-B-6: relative to PKA, PKC and calmodulin-dependent kinase inhibitor samples
Procedure: Primary bovine articular chondrocytes from calf adio-carpal joints were isolated and cultured as above in Example 1, up to and including the addition of the following protein kinase inhibitors: 1) Protein kinase A (PKA) inhibitors; 0.5 μM H88 (Seikagaku Corp.), 0.5 μM H89 (Seikagaku Corp.); 2) Protein kinase C (PKC) inhibitors; 0.5 μM Calphostin C (Calbiochem), 1.0 μM Chelerythrine (Calbiochem); 3) CA^2+/Calmodulin Kinase II inhibitor; 5.0 μM KN93 (Seikagaku Corp.); 4) Protein tyrosine kinase (PTK) inhibitors; 50 μM Genistein (Calbiochem), 10 μM Herbimycin A (Calbiochem). After the 24 hour IL-1α incubation, the media of each sample was measured, and collected on ice in the presence of the protease inhibitors EGTA (5 mM), Pefaloc (1 mM), pepstatin (1 μg/ml), and NEM (5 mM). Media were concentrated approximately 40 fold using a Centriprep-10 ultrafiltration device (Amicon).
Proteoglycans contained within the media were deglycosylated by incubations with chondroitinase ABC, keratinase, and keratinase II following the procedure of Sandy et al. J Biol Chem (1991) 266:8683-8685 and Sandy et al. J. Clin Invest (1992) 89:1512-1516. Samples of deglycosylated media were subjected to 4-15% gradient SDS-PAGE and transferred to nitrocellulose membranes (2 ml-worth and 6 ml-worth of media were used for 2-B-6 and BC-3 immunoblotting, respectively.) The membranes were blocked with 1% nonfat dry milk and 1% BSA, and then incubated in either the BC-3 or 2-B-6 primary monoclonal antibody for 1 hour. The 2-B-6 antibody detects chondroitin sulfate stubs on chondroitinase-treated proteoglycans (both intact and degradation products. BC-3 antibody detects “ARGSV . . . ,” the new N-terminus (“neoepitope”) resulting from cleavage of aggrecan interglobular domain at Glu^373/ALA^374 by aggrecanase. It is of note to mention that the BC-3 and 2-B-6 antibodies were of low sensitivity. Following 3 washes, membranes were incubated in either alkaline phosphatase-conjugated goat anti-mouse (for the 2-B-6 blot) or biotinylated goat anti-mouse (for the BC-3 blot); followed by alkaline phosphatase-conjugated streptavidin/biotin complex). After washing 3 times, immunoreactive proteins were detected using NBT/BCIP (Sigma) colorimetric substrate.
The 2-B-6 antibody detected intact aggrecan (the uppermost band) and several aggrecan degradation products, along with decorin and biglycan (50K doublet), in the IL-1-treated media samples. […] The bands in the IL-1 sample that are seen at 230K, 200K, 130K and 100K have been previously identified by sequence analysis to result from IL-1-induced “aggrecanase” cleavage.
A repeat of the Western immunoblotting experiment using 2-B-6 antibodies was performed. Furthermore, additional inhibitors from four enzyme families were examined: 1) Protein tyrosine kinase (PTK) inhibitors; 1 μM Tryphostin AG 1296 (Calbiochem), 50 μM Tyrphostin A25 (AG 82) (Calbiochem), 50 μM Tyrphostin AG 126 (Calbiochem), 50 μM Tyrphostin B56 (AG 556) (Calbiochem), 20 μM DAPH (Calbiochem); 2) Guanylate cyclase inhibitor; 10 μM LY-83583 (Calbiochem); 3) Casein kinase I inhibitor; 20 μM CKI-7 (Seikagaku Corp.); and 4) Protein kinase G (PKG) and PKA inhibitor; 5.0 μM H89.

SMILES: N#C/C(=C\c1ccc(O)c(O)c1)C(=O)NCCCCc1ccccc1 [Tyrphostin AG 556]
- percent inhibition of IL-1 induced 35S release ([1]; 50 μM, repeated assay): 100%
- inhibition of IL-1-induced aggrecan degradation, 2-B-6 ([2]; 50 μM, repeat experiment): 100%

SMILES: N#CC(C#N)=Cc1ccc([N+](=O)[O-])c(O)c1 [Tyrphostin AG 126]
- percent inhibition of IL-1 induced 35S release ([1]; 50 μM, repeated assay): no inhibition
- inhibition of IL-1-induced aggrecan degradation, 2-B-6 ([2]; 50 μM, repeat experiment): no inhibitory effect

SMILES: N#CC(C#N)=Cc1cc(O)c(O)c(O)c1 [Tyrphostin AG 82]
- percent inhibition of IL-1 induced 35S release ([1]; 50 μM, repeated assay): 40%
- inhibition of IL-1-induced aggrecan degradation, 2-B-6 ([2]; 50 μM, repeat experiment): moderate inhibition

SMILES: CO[C@H]1[C@@H](OC)C[C@H](C)[C@@H](OC)C2=CC(=O)C=C(NC(=O)/C(C)=C/C=C\[C@H](OC)[C@@H](OC(N)=O)/C(C)=C/[C@@H]1C)C2=O [Herbimycin A]
- inhibition at 10 µM ([1]; first experiment, 1 ng/ml rhIL-1α, read-out: inhibitory effect on IL-1 induced release of 35S-labelled proteoglycans): 75 to 100%
- inhibition at 10 µM ([1]; repeated assay, read-out: percent inhibition of IL-1 induced 35S release): 89%
- level of the 230K aggrecan degradation product, 2-B-6 ([2]; 10 μM): significantly reduce
- levels of the uppermost band (intact aggrecan), 2-B-6 ([2]; 10 μM): increased
- intensity of staining (total amount of PG fragments), 2-B-6 ([2]; 10 μM): reduced
- inhibition at 10 µM ([2]; Bos taurus, Chondrocyte, 10 μM, repeat experiment): ~100%

SMILES: O=C1NC(=O)c2cc(Nc3ccccc3)c(Nc3ccccc3)cc21 [DAPH, 4,5-dianilinophthalimide]
- percent inhibition of IL-1 induced 35S release ([1]; 2 μM, repeated assay): no inhibition
- percent inhibition of IL-1 induced 35S release ([1]; 20 μM, repeated assay): no inhibition
- inhibition of IL-1-induced aggrecan degradation, 2-B-6 ([2]; 20 μM, repeat experiment): moderately strong inhibition

SMILES: O=c1c(-c2ccc(O)cc2)coc2cc(O)cc(O)c12 [Genistein]
- inhibition at 50 µM ([1]; 50 μM, first experiment, 1 ng/ml rhIL-1α, read-out: inhibitory effect on IL-1 induced release of 35S-labelled proteoglycans): 75 to 100%
- inhibition at 50 µM ([1]; 50 μM, repeated assay, read-out: percent inhibition of IL-1 induced 35S release): 58%
- level of the 230K aggrecan degradation product, 2-B-6 ([2]; 50 μM): significantly reduce
- levels of the uppermost band (intact aggrecan), 2-B-6 ([2]; 50 μM): increased
- intensity of staining (total amount of PG fragments), 2-B-6 ([2]; 50 μM): reduced
- inhibition of IL-1-induced aggrecan degradation, 2-B-6 ([2]; 50 μM, repeat experiment): partial inhibition

— US6552066B1, “Protein tyrosine kinase inhibitors for treating osteoarthritis” (priority 1995, dated 2003)
